Test [1] addresses T1, dopamine transporter (Rattus norvegicus, UniProt P23977).
T1 construct: Corpus striatum from male Wistar rats (150-200 g) is homogenized; from tissue; host or cells: corpus striatum of male Wistar rats
The experiment in a line: In vitro inhibition of ^3 H-WIN 35428 binding (corpus striatum). Also noted: species or system rat (male Wistar). An excerpt: The compounds of the present invention have been tested for their ability to bind to the dopamine transporter in the following tests for in vitro and in vivo inhibition of ^3 H-WIN 35428.
In vitro inhibition of ^3 H-WIN 35428 binding
Dopamine transporters/uptake sites on nerve terminals presumably function to terminate neuronal signaling by removing dopamine from the synaptic cleft. The activity or presence of the dopamine transporter integral protein can be measured in vitro with synaptosomal uptake of ^3 H-dopamine or membrane binding assays with ^3 H-ligands known to bind to the transporter.
Numerous ligands of several structural types have been reported to bind at the dopamine uptake site, but it remains questionable whether their binding sites are identical to that of cocaine.
Tissue preparation: Preparations are performed at 0°-4° C. unless otherwise indicated. Corpus striatum from male Wistar rats (150-200 g) is homogenized for 5-10 sec in 10 ml NaH2 PO4 (50 mM, pH 7.4) using an Ultra-Turrax homogenizer. The suspension is centrifuged at 27,000×g for 15 min. The supernatant is discarded and the pellet is resuspended in 50 mM NaH2 PO4, pH 7.4 (1000 ml per g of original tissue) and used for binding assays.
Assay: Aliquots of 0.5 ml tissue are added to […] of ^3 H-WIN 35428 (1 nM, final concentration), mixed and incubated for 60 min at 2° C. Non-specific binding is determined using cocaine ([…], final concentration). After incubation the samples are added 5 ml of ice-cold buffer and poured directly onto Whatman GF/C glass fibre filters under suction and immediately washed with 5 ml ice-cold buffer. The amount of radioactivity on the filters is determined by conventional liquid scintillation counting. Specific binding is total binding minus non-specific binding.
25-75% inhibition of specific binding must be obtained, before calculation of an IC50. The test value is given as IC50 (the concentration (μM) of the test substance which inhibits the specific binding of ^3 H-WIN 35428 by 50%).

For test [2], the target named is dopamine transporter (Mus musculus, UniProt Q61327). In words: In vivo inhibition of ^3 H-WIN 35428 binding (striatum). Further details: from tissue; host or cells: striatum of living female NMRI mice; species or system mice (female NMRI). Particulars: ip, mice, inhibition of specific ^3 H-WIN 35428 binding in striatum. Here is the method:
All test substances used are solutions or suspensions prepared in 10% TWEEN 80. Groups of three female NMRI mice (25 g) are injected i.p. with the test substance. […] Tissues are weighed and dissolved for 36 h with 1 ml 2% sodium-laurylsulfat. The solubilized tissue is then added 2 ml of scintillation cocktail, and the amount of radioactivity per mg of tissue is counted by conventional liquid scintillation counting. Groups of untreated mice serves as controls.
The ED50 value is determined from dose response curves.
ED50 =(administered dose, mg/kg)×1/(C0 /Cx -1), where C0 is specific binding in controls and Cx is the specific binding in mice treated with test substance.

Test [3] concerns immobility time of mice suspended by the tail. The experiment in a line: Tail Suspension. The test is classed as in vivo, mice (female NMRI). The settings on record: Mus musculus, 0.5 h, oral, 30 min before test, dose reducing the immobility to 100 sec. Here is the method:
A decrease in the immobility time by mice suspended in their tail is seen after systemic administration of central stimulants and by antidepressants (Steru, L., Chermat, R., Thierry, B. & Simon, P. (1985) The tail suspension test: A new method for screening antidepressants in mice. Psychopharmacology 85:367-370.).
Female NMRI mice (20-25 g) habituated to the room (12 hours light/dark) for at least 16 hours and housed 25 per cage are used. The mice are suspended by the tail with adhesive tape to a rod 30 cm above the lab. bench 30 min after an oral administation of vehicle or drug. For the next 6 min the accumulated duration of immobility defined as no movements by the body or extremities (however head movements are not defined as movements) are noted, Six mice per dose are used.
Saline or vehicle treated mice have immobility time scores between 160-180 sec in average. An ED50 -value is calculated by graphical interpolation from at least 3 doses as the dose reducing the immobility to 100 sec.

Where [4] appears, read: rat corpus striatum, ^3 H-WIN 35428 1 nM, 60 min at 2° C., read-out: in vitro IC50.

The term pIC50 denotes the IC50 on a negative log10 scale, so that one unit is a factor of ten. In general, ED50 refers to the dose that gives a 50% effect, or the effect in half of the subjects.

pIC50: −log10 of the molar value. Where a name gives a salt, the structure may show the parent alone. Read-outs that look alike come from different tables or passages of the source.

T1 sequence (P23977 whole entry): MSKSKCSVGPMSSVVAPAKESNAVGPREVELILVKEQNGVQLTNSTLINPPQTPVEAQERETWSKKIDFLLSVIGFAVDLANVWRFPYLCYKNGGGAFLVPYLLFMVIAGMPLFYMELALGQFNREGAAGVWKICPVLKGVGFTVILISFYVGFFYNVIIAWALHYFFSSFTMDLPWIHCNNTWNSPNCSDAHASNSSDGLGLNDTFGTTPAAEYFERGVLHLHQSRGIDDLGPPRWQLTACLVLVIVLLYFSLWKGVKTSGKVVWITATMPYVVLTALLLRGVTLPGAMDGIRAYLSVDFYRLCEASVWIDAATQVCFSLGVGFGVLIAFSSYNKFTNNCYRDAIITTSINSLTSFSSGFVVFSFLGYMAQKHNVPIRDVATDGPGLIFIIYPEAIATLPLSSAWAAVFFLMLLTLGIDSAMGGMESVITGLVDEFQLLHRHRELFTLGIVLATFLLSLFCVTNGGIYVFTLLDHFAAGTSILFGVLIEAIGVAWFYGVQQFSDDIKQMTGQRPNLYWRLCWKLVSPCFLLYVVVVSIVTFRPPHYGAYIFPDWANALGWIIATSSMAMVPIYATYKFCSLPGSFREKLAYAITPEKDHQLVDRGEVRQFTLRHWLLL
dopamine transporter (Mus musculus, UniProt Q61327), sequence (Q61327 whole entry): as the sequence (P23977 whole entry) above, with S21P, A57V, A194S, H600R, L619V counted along it

For `CC(C)CON=C[C@@H]1[C@@H](c2ccc(Cl)c(Cl)c2)C[C@@H]2CC[C@H]1N2C` [(1R,2R,3S)-3-(3,4-Dichlorophenyl)tropane-2-O-(2-methylpropyl)-aldoxime hydrochloride], the negative logarithm of the IC50 (pIC50) on dopamine transporter [1] (setting [4]) was 7.25.

As to `C=CCON=C[C@@H]1[C@@H](c2ccc(Cl)c(Cl)c2)C[C@@H]2CC[C@H]1N2C` [(1R,2R,3S)-3-(3,4-Dichlorophenyl)tropane-2-O-(2-propenyl)-aldoxime hydrochloride], the negative-log IC50 (pIC50) at dopamine transporter [1] (setting [4]) was 7.66.

For `C#CCON=C[C@@H]1[C@@H](c2ccc(Cl)c(Cl)c2)C[C@@H]2CC[C@H]1N2C` [(1R,2R,3S)-3-(3,4-Dichlorophenyl)tropane-2-O-(2-propynyl)-aldoxime hydrochloride], the pIC50 at dopamine transporter [1] (setting [4]) was 7.72.

Take `CN1[C@H]2CC[C@@H]1[C@H](C=NOCC1CC1)[C@@H](c1ccc(Cl)c(Cl)c1)C2` [(1R,2R,3S)-3-(3,4-Dichlorophenyl)tropane-2-O-cyclopropylmethyl-aldoxime hydrochloride]: the pIC50 at dopamine transporter [1] (setting [4]) is 7.70.

Regarding `CCOC(=O)CON=C[C@@H]1[C@@H](c2ccc(Cl)c(Cl)c2)C[C@@H]2CC[C@H]1N2C` [(1R,2R,3S)-3-(3,4-Dichlorophenyl)tropane-2-O-ethoxycarbonylmethyl-aldoxime,hydrochloride], the negative logarithm of the IC50 (pIC50) on dopamine transporter [1] (setting [4]) was 7.62. In addition, the ED50 on dopamine transporter [2] is greater than 10 mg/kg.

In turn, `CN1[C@H]2CC[C@@H]1[C@H](C=NO)[C@@H](c1ccc(Cl)c(Cl)c1)C2` [(1R,2R,3S)-3-(3,4-Dichlorophenyl)tropane-2-aldoxime] gave a negative logarithm of the IC50 (pIC50) on dopamine transporter [1] of 8.47. Moreover, the ED50 turned out to be 0.41 mg/kg in test [3] and 3.8 mg/kg on dopamine transporter [2].

In test [3], `CC(C)CON=C[C@@H]1[C@@H](c2ccc(Cl)c(Cl)c2)C[C@@H]2CC[C@H]1N2C` [(1R,2R,3S)-3-(3,4-dichlorophenyl)-tropane-2-O-(2-methylpropyl)-aldoxime] came in with a median effective dose (ED50) of 0.8 mg/kg.

For `C=CCON=C[C@@H]1[C@@H](c2ccc(Cl)c(Cl)c2)C[C@@H]2CC[C@H]1N2C` [(1R,2R,3S)-3-(3,4-dichlorophenyl)-tropane-2-O-(2-propenyl)-aldoxime], the 50% effect level in test [3] (ED50) was put at a dose of 0.23 mg/kg.

`C#CCON=C[C@@H]1[C@@H](c2ccc(Cl)c(Cl)c2)C[C@@H]2CC[C@H]1N2C` [(1R,2R,3S)-3-(3,4-dichlorophenyl)-tropane-2-O-(2-propynyl)-aldoxime]: the 50% effect level in test [3] (ED50) was put at a dose of 0.04 mg/kg.

As to `CN1[C@H]2CC[C@@H]1[C@H](C=NOCc1ccccc1)[C@@H](c1ccc(Cl)c(Cl)c1)C2` [(1R,2R,3S)-3-(3,4-dichlorophenyl)-tropane-2-O-benzyl-aldoxime, HCl], at dopamine transporter [1] (setting [4]), the negative logarithm of the IC50 (pIC50) was 7.12. For the same molecule, the median effective dose (ED50) in test [3] was 2 mg/kg; on dopamine transporter [2] it was greater than 10 mg/kg.

In test [3], `CN1[C@H]2CC[C@@H]1[C@H](C=NOCC1CC1)[C@@H](c1ccc(Cl)c(Cl)c1)C2` [(1R,2R,3S)-3-(3,4-dichlorophenyl)-tropane-2-O-cyclopropylmethyl-aldoxime] yielded an ED50 of 0.7 mg/kg.

As for `COC(=O)CON=C[C@@H]1[C@@H](c2ccc(Cl)c(Cl)c2)C[C@@H]2CC[C@H]1N2C` [(1R,2R,3S)-3-(3,4-dichlorophenyl)tropane-2-O-methoxycarbonylmethyl-aldoxime], the ED50 in test [3] was 0.25 mg/kg.

`CON=C[C@@H]1[C@@H](c2ccc(Cl)cc2)C[C@@H]2CC[C@H]1N2C` [(1R,2R,3S)-3-(4-chlorophenyl)tropane-2-O-methylaldoxime hydrochloride]: the negative-log IC50 (pIC50) on dopamine transporter [1] (setting [4]) was 7.32. In addition, the median effective dose (ED50) in test [3] came out at 0.43 mg/kg; on dopamine transporter [2] it was 1 mg/kg.

Consider `CON=C[C@@H]1[C@@H](c2ccc(C)cc2)C[C@@H]2CC[C@H]1N2C` [(1R,2R,3S)-3-(4-methylphenyl)tropane-2-O-methyl-aldoxime hydrochloride], for which, at dopamine transporter [1] (setting [4]), the pIC50 is 7.38.

In test [3], `CN1[C@H]2CC[C@@H]1[C@@H](C=NOCc1ccccc1)[C@@H](c1ccc(Cl)c(Cl)c1)C2` [(1R,2S,3S)-3-(3,4-dichlorophenyl)tropane-2-O-benzyl-aldoxime, hydrochloride] displayed an ED50 of 0.94 mg/kg.
